Results from US6444816B1, “Fused 7-oxo-pyrimidinyl compounds, preparation, composition and use thereof” (Dr. Reddy's Research Foundation, priority 1997, dated 2002).

Experiments:
[1] = biological target: T1, hPPARα (Homo sapiens, UniProt Q07869); assay: Determination of hPPARα activity (GAL4 luciferase reporter transactivation in HEK-293 cells); assay type: cell-based; details: compound at 50 μM, HEK-293 cells transfected with GAL4-hPPARα LBD
T1 construct: expressed in transfected cells; host or cells: HEK-293
T1 sequence (Q07869 239-466 limits assumed): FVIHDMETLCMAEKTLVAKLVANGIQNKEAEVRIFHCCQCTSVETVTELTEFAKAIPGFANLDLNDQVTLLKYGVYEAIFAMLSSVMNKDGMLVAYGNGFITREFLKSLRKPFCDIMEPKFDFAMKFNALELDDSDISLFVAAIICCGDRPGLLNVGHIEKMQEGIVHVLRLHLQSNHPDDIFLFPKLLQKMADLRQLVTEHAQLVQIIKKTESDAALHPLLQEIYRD
Protocol: Ligand binding domain of hPPARα was fused to DNA binding domain of Yeast transcription factor GAL4 in eucaryotic expression vector. Using superfect (Qiagen, Germany) as transfecting reagent HEK-293 cells were transfected with this plasmid and a reporter plasmid harboring the luciferase gene driven by a GAL4 specific promoter. Compound was added at different concentrations after 42 hrs of transfection and incubated overnight. Luciferase activity as a function of compound binding/activation capacity of PPARα was measured using Packard Luclite kit (Packard, USA) in Top Count (Ivan Sadowski, Brendan Bell, Peter Broag and Melvyn Hollis. Gene. 1992. 118: 137-141; Superfect Transfection Reagent Handbook. February 1997. Qiagen, Germany).

[2] = biological target: T2, hPPARγ1 (Homo sapiens, UniProt P37231); assay: Determination of hPPARγ activity (GAL4 luciferase reporter transactivation in HEK-293 cells); assay type: cell-based; details: compound at 1 μM, HEK-293 cells transfected with GAL4-hPPARγ1 LBD
T2 construct: expressed in transfected cells; host or cells: HEK-293
T2 sequence (P37231 238-503 limits assumed): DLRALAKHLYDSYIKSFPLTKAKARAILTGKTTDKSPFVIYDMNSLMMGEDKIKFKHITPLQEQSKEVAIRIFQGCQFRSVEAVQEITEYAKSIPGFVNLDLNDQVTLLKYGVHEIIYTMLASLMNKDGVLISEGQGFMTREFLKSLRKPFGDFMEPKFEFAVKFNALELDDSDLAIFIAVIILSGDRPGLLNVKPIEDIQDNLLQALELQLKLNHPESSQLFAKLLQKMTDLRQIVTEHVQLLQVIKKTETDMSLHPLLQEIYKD
Protocol: Ligand binding domain of hPPARγ1 was fused to DNA binding domain of Yeast transcription factor GAL4 in eucaryotic expression vector. Using lipofectamine (Gibco BRL, USA) as transfecting reagent HEK-293 cells were transfected with this plasmid and a reporter plasmid harboring the luciferase gene driven by a GAL4 specific promoter. Compound was added at 1 μM concentration after 48 hrs of transfection and incubated overnight. Luciferase activity as a function of drug binding/activation capacity of PPARγ1 was measured using Packard Luclite kit (Packard, USA) in Packard Top Count (Ivan Sadowski, Brendan Bell, Peter Broag and Melvyn Hollis. Gene. 1992. 118: 137-141; Guide to Eukaryotic Transfections with Cationic Lipid Reagents. Life Technologies, GIBCO BRL, USA).

[3] = test system: Swiss albino mice; assay: Triglyceride lowering activity in Swiss albino mice; assay type: in vivo; details: 3 mg/kg/day oral for 6 days
Protocol: Male Swiss albino mice (SAM) were obtained from NIN and housed in DRF animal house. All these animals were maintained under 12 hour light and dark cycle at 25±1° C. Animals were given standard laboratory chow SIN, Hyderabad, India) and water, ad libitun. SAM of 20-25 g body weight range and Guinea pigs of 500-700 g body weight range were used (Oliver, P., Plancke, M. O., Marzin, D., Clavey, V., Sauzieres, J and Fruchart, J. C. Effects of fenofibrate, gemfibrozil and nicotinic acid on plasma lipoprotein levels in normal and hyperlipidemic mice. Atherosclerosis. 1988. 70:107-114).
The test compounds were administered orally to Swiss albino mice at 0.3 to 30 mg/kg/day dose for 6 days. Control mice were treated with vehicle (0.25% Carboxymethylcellulose; dose 10 ml/kg). The test compounds were administered orally to Guinea pigs at 0.3 to 30 mg/kg/day dose for 6 days. Control animals were treated with vehicle (0.25% Carboxymethylcellulose; dose 5 ml/kg).
The blood samples were collected in fed state 1 hour after drug administration on 0 and 6 day of treatment. The blood was collected from the retro-orbital sinus through heparinised capillary in EDTA containing tubes. After centrifugation, plasma sample was separated for triglyceride and total cholesterol (Wieland, O. Methods of Enzymatic analysis. Bergermeyer, H. O., Ed., 1963. 211-214; Trinder, P. Ann. Clin. Biochem. 1969. 6: 24-27). Measurement of plasma triglyceride, total cholesterol and HDL were done using commercial kits (Dr. Reddy's Diagnostic Division, Hyderabad, India).
(§1) 1. Percent reduction in Blood sugar/triglycerides/total cholesterol were calculated according to the formula: [formula]

[4] = test system: hypercholesterolemic male Sprague Dawley rats; assay: Cholesterol lowering activity in hypercholesterolemic male Sprague Dawley rats; assay type: in vivo; details: 3 mg/kg/day oral for 3 days
Protocol: Male Sprague Dawley rats (NIN stock) were bred in DRF animal house. Animals were maintained under 12 hour light and dark cycle at 25±1° C. Rats of 180-200 gram body weight range were used for the experiment. Animals were made hypercholesterolemic by feeding 2% cholesterol and 1% sodium cholate mixed with standard laboratory chow [National Institute of Nutrition (NMN), Hyderabad, India] for 6 days. Throughout the experimental period the animals were maintained on the same diet (Petit, D., Bonnefis, M. T., Rey, C and Infante, R. Effects of ciprofibrate on liver lipids and lipoprotein synthesis in normo- and hyperlipidemic rats. Atherosclerosis. 1988. 74: 215-225).
The test compounds were administered orally at a dose 0.1 to 30 mg/kg/day for 3 days. Control group was treated with vehicle alone (0.25% Carboxymethylcellulose; dose 10 ml/kg).
The blood samples were collected in fed state 1 hour after drug administration on 0 and 3 day of compound treatment. The blood was collected from the retro-orbital sinus through heparinised capillary in EDTA containing tubes. After centrifugation, plasma sample was separated for total cholesterol, HDL and triglyceride estimations. Measurement of plasma triglyceride, total cholesterol and HDL were done using commercial kits (Dr. Reddy's Laboratory, Diagnostic Division, India). LDL and VLDL cholesterol were calculated from the data obtained for total cholesterol, HDL and triglyceride. The reduction of various parameters examined are calculated according to the formula given below.
as §1
2. LDL and VLDL cholesterol levels were calculated according to the formula: [formula]
VLDL cholesterol in mg/dl=[Total cholesterol−HDL cholesterol−LDL cholesterol] mg/dl.

[5] = test system: C57BL/KsJ-db/db mice; assay: Blood glucose and triglyceride lowering activity in db/db mice; assay type: in vivo; details: 3 mg/kg oral gavage daily for 6 days, plasma 1 h after dose on day 6
From the text: Mutation in colonies of laboratory animals and different sensitivities to dietary regimens have made the development of animal models with non-insulin dependent diabetes and hyperlipidemia associated with obesity and insulin resistance possible. Genetic models such as db/db and ob/ob (Diabetes, (1982) 31(1): 1-6) mice and zucker fa/fa rats have been developed by the various laboratories for understanding the pathophysiology of disease and testing the efficacy of new antidiabetic compounds (Diabetes, (1983) 32: 830-838; Annu. Rep. Sankyo Res. Lab. (1994). 46: 1-57). The homozygous animals, C57 BL/KsJ-db/db mice developed by Jackson Laboratory, US, are obese, hyperglycemic, hyperinsulinemic and insulin resistant (J. Clin. Invest., (1990) 85: 962-967), whereas heterozygous are lean and normoglycemic. In db/db model, mouse progressively develops insulinopenia with age, a feature commonly observed in late stages of human type II diabetes when blood sugar levels are insufficiently controlled. The state of pancreas and its course vary according to the models. Since this model resembles that of type II diabetes mellitus, the compounds of the present invention were tested for blood sugar and triglycerides lowering activities.
Male C57BL/KsJ-db/db mice of 8 to 14 weeks age, having body weight range of 35 to 60 grams, bred at Dr. Reddy's Research Foundation (DRF) animal house, were used in the experiment. The mice were provided with standard feed (National Institute of Nutrition (NIN), Hyderabad, India) and acidified water, ad libitum. The animals having more than 350 mg/dl blood sugar were used for testing. The number of animals in each group was 4.
Test compounds were suspended on 0.25% carboxymethyl cellulose and administered to test group at a dose of 0.001 mg to 30 mg/kg through oral gavage daily for 6 days. The control group received vehicle (dose 10 ml/kg). On 6th day the blood samples were collected one hour after administration of test compounds/vehicle for assessing the biological activity.
The random blood sugar and triglyceride levels were measured by collecting blood (100 μl) through orbital sinus, using heparinised capillary in tubes containing EDTA which was centrifuged to obtain plasma. The plasma glucose and triglyceride levels were measured spectrometrically, by glucose oxidase and glycerol-3-PO4 oxidase/peroxidase enzyme (Dr. Reddy's Lab. Diagnostic Division Kits, Hyderabad, India) methods respectively.
The blood sugar and triglycerides lowering activities of the test compound was calculated according to the formula given below.
as §1

Structure (SMILES) | PPARα activity [1] | PPARγ activity [2] | Triglyceride (%)↓ [3] [%] | Reduction in Blood Glucose Level (%) [5] [%] | Triglyceride Lowering (%) [5] [%] | other results
CCCc1nn(C)c2c(=O)n(CCOc3ccc(CC(OCC)C(=O)OCC)cc3)c(CC)nc12 (stereo not shown) [Example 1] | 5.00 | 11.0 | 45 | – | – | –
CCCc1nn(C)c2c(=O)n(CCOc3ccc(CC(OCC)C(=O)O)cc3)c(CC)nc12 (stereo not shown) [Example 2] | – | – | – | – | – | HDL ↓ [4]: 164; Total Cholesterol (%)↓ [4]: 60%; Triglyceride (%)↓ [4]: 70%; LDL (%)↓ ([4]; LDL calculated from total cholesterol, HDL and triglyceride): 72%; VLDL (%)↓ ([4]; VLDL calculated from total cholesterol, HDL and LDL): 71%
CCCc1nn(C)c2c(=O)n(CCOc3ccc(CC(OCC)C(=O)OCC)cc3)c(C)nc12 (stereo not shown) [Example 3, Ethyl 3-[4-[2-(1,5-Dimethyl-7-oxo-3-propyl-6,7-dihydro-1H-pyrazolo[4,3-d]pyrimidin-6-yl)ethoxy]phenyl]-2-ethoxypropanoate] | 6.9 | 19.0 | 61 | 58 | 23 | –
CCCc1nn(C)c2c(=O)n(CCOc3ccc(CC(OCC)C(=O)O)cc3)c(C)nc12 (stereo not shown) [Example 4, 3-[4-[2-(1,5-Dimethyl-7-oxo-3-propyl-6,7-dihydro-1H-pyrazolo[4,3-d]pyrimidin-6-yl)ethoxy]phenyl]-2-ethoxypropanoic Acid] | 8.32 | 14.6 | 66 | 42 | 17 | –
CCCc1nn(C)c2c(=O)n(CCOc3ccc(CC(Oc4ccccc4)C(=O)O)cc3)c(CC)nc12 (stereo not shown) [Example 10, 3-[4-[2-(5-Ethyl-1-methyl-7-oxo-3-propyl-6,7-dihydro-1H-pyrazolo[4,3-d]pyrimidin-6-yl)ethoxy]phenyl]-2-phenoxypropanoic Acid] | – | – | – | 33 | 35 | –
CCCc1nn(C)c2c(=O)n(CCOc3ccc(CC(OCC)C(=O)OCC)cc3)c(CCC)nc12 (stereo not shown) [Example 13, Ethyl 3-[4-[2-(3,5-Dipropyl-1-methyl-7-oxo-6,7-dihydro-1H-pyrazolo[4,3-d]pyrimidin-6-yl)ethoxy]phenyl]-2-ethoxypropanoate] | – | – | 25 | – | – | –
CCCc1nn(C)c2c(=O)n(CCOc3ccc(C[C@@H](OCC)C(=O)N[C@H](CO)c4ccccc4)cc3)c(CC)nc12 [Example 18A, [2R, N(1S)]-2-Ethoxy-3-[4-[2-(5-ethyl-1-methyl-7-oxo-3-propyl-6,7-dihydro-1H-pyrazolo[4,3-d]pyrimidin-6-y]ethoxy]phenyl]-N-(2-hydroxy-1-phenylethyl) Propanamide] | – | – | – | – | – | melting point: 138 to 139 °C
